# From US20230192631A1, “Biphenyl Derivatives” (Hoffmann-La Roche Inc., priority 2020, published 2023)
# Target: T1, human cGAS (residues 161-522) (Homo sapiens, UniProt Q8N884)
# T1 construct: Recombinantly expressed purified human cGAS (residues 161-522) was used at 25 nM; made in house
# Assay: Malachite Green assay to measure cGAS activity
# Type: biochemical
# Details: coupled enzymatic assay, phosphate detection by Malachite Green; 25 nM cGAS, 80 μM ATP, 80 μM GTP, 100 nM ISD, 4 hour at RT
# Protocol: Compounds were tested for cGAS inhibition in a coupled enzymatic assay based on Phosphate detection by Malachite Green. Final assay conditions were 20 mM TRIS pH 7.5 (Applichem), 5 mM MgCl2 (Sigma) and 0.01% BSA (Sigma) supplemented with 80 μM ATP (Sigma), 80 μM GTP (Sigma) and 100 nM Interferon Stimulating DNA (ISD) (Microsynth). Recombinantly expressed purified human cGAS (residues 161-522) was used at 25 nM.
# All compounds were prepared as 10 mM stock solutions in DMSO and a 16 pt dilution series in DMSO with a dilution factor of 2.5 was prepared. 1 μL of DMSO dilution series was transferred to 32.3 μL reaction buffer, mixed by pipetting up/down, spun for 1 minute at 3000 rpm and was visually inspected for precipitation. 5 μL of 3-fold enzyme stock solution were transferred to an empty 384-well Black/Clear Flat Bottom Polystyrene NBS (Corning) rows 3-24. Rows 1-2 were filled with assay buffer. Plates were spun 10 seconds at 1000 rpm (164×g). 5 μL of compound intermediate dilution was added and mixed by pipetting up/down to rows 3-24. Rows 1-2 were filled with 3.1% DMSO assay buffer. Plates were spun 10 seconds at 1000 rpm (164×g). 5 μL 3-fold Nucleotide/DNA mix was added to all wells to start the reaction. Plates were spun 10 seconds at 1000 rpm (164×g) and incubated for 4 hour at room temperature (RT) in the dark. 5 μL 4 U/mL PPase (Sigma) were added to all wells. Plates spun 10 seconds at 1000 rpm (164×g). 10 μL BioMol green Solution (Enzo Life Sciences) was added to all wells. Plates spun 10 seconds at 1000 rpm (164×g) and incubated 30 minutes at RT in the dark. Absorbance data was collected 620 nm on an EnVision Multilable Reader (Perkin Elmer) and the following measurement settings were used: excitation filter photometric was 620 nm; excitation from the top; measurement height was 1 mm; number of flashes was 30; number of flashes integrated was 1.
# All plates are checked for abnormalities and outliers in the Blank Control (no protein, row 1) and the Neutral Control (no compound, row 2) are excluded using the 3*SD rule. Data was normalized to 0 and 100% by Blank and Neutral Control and each curve was fitted and judged using the 4 parameter logistic equation to determine the IC50 for cGAS inhibition.
# Table 1 provides IC50 values (μM) for cGAS inhibition obtained for particular examples of the present invention as measured by the above-described assay.
# T1 sequence (Q8N884 161-522): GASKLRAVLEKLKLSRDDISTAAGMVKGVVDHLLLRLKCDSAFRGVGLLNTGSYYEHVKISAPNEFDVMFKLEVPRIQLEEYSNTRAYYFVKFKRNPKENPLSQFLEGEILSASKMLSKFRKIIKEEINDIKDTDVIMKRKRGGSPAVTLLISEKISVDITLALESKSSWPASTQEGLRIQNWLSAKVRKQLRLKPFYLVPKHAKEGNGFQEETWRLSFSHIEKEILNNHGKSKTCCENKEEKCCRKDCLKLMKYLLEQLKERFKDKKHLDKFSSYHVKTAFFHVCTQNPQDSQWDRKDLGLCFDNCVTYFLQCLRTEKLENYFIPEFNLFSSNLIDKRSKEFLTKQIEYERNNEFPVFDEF
row,IC50 [nM],Compound
1,1830,"Cc1ccc(-c2ccc(NC(=O)Cn3cncn3)c(C(=O)O)c2)c(Cl)c1 [Example 1, 4-(2-(1H-1,2,4-Triazol-1-yl)acetamido)-2′-chloro-4′-methyl-[1,1′-biphenyl]-3-carboxylic Acid]"
2,4820,"Cc1ccc(-c2ccc(NC(=O)CCN3CCOCC3)c(C(=O)O)c2)c(Cl)c1 [Example 3, 2′-Chloro-4′-methyl-4-(3-morpholinopropanamido)-[1,1′-biphenyl]-3-carboxylic Acid]"
3,320,"Cc1ccc(-c2ccc(NC(=O)CN3CCOCC3)c(C(=O)O)c2)c(Cl)c1 [Example 4, 5-(2-Chloro-4-methylphenyl)-2-[(2-morpholin-4-ylacetyl)amino]benzoic Acid]"

# More lines, now with the values behind:
row,Compound,IC50 [nM]
1,"Cc1ccc(-c2ccc(NC(=O)Cc3cnc(C)[nH]c3=O)c(C(=O)O)c2)c(Cl)c1 [Example 2, 2′-Chloro-4′-methyl-4-(2-(2-methyl-6-oxo-1,6-dihydropyrimidin-5-yl)acetamido)-[1,1′-biphenyl]-3-carboxylic Acid]",2090
2,"Cc1ccc(-c2ccc(NC(=O)Cc3ccccc3)c(C(=O)O)c2)c(Cl)c1 [Example 5, 5-(2-Chloro-4-methylphenyl)-2-[(2-phenylacetyl)amino]benzoic Acid]",3070
3,"Cc1ccc(-c2ccc(OCCn3ccnc3)c(C(=O)O)c2)c(Cl)c1 [Example 6, 5-(2-Chloro-4-methylphenyl)-2-(2-imidazol-1-ylethoxy)benzoic Acid]",2800
4,"Cc1ccc(-c2ccc(OCCN3CCS(=O)(=O)CC3)c(C(=O)O)c2)c(Cl)c1 [Example 7, 5-(2-Chloro-4-methylphenyl)-2-[2-(1,1-dioxo-1,4-thiazinan-4-yl)ethoxy]benzoic Acid]",2670
5,"Cc1ccc(-c2ccc(OCc3ccccc3)c(C(=O)O)c2)c(Cl)c1 [Example 8, 5-(2-Chloro-4-methylphenyl)-2-phenylmethoxybenzoic Acid]",4210
